Measurements reported in ChEMBL document CHEMBL1201862, “PubChem BioAssay data set” (2004).
Several values for one entry are separate records, joined by “and”; a condition that tells them apart may be missing. Equal values may be shown once.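 48-hour exposure; five concentrations; linearly interpolated endpoints. GI50 marks 50% less growth.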 Activity calls are given as the source filed them. Rule as the data show it: active = GI50 up to about 1.1 µM and inactive = higher.

Legend:
Assay in all cases: NCI tumour cell line growth inhibition, 48 h
BT-549 = system: BT-549
CAKI-1 = system: CAKI-1
HCT-116 = system: HCT-116
Hs-578T = system: Hs-578T
KM12 = system: KM12
MCF7 = system: MCF7
MDA-MB-231 = system: MDA-MB-231
NCI-H226 = system: NCI-H226
OVCAR-3 = system: OVCAR-3
OVCAR-8 = system: OVCAR-8
SF-268 = system: SF-268
SF-295 = system: SF-295
SK-MEL-2 = system: SK-MEL-2
SNB-19 = system: SNB-19
SNB-75 = system: SNB-75
SW-620 = system: SW-620
T47D = system: T47D
K562 = system: K562
TK-10 = system: TK-10
HL-60 = system: HL-60

Compound	GI50 (BT-549)	GI50 (CAKI-1)	GI50 (HCT-116)	GI50 (Hs-578T)	GI50 (KM12)	GI50 (MCF7)	GI50 (MDA-MB-231)	GI50 (NCI-H226)	GI50 (OVCAR-3)	GI50 (OVCAR-8)	GI50 (SF-268)	GI50 (SF-295)	GI50 (SK-MEL-2)	GI50 (SNB-19)	GI50 (SNB-75)	GI50 (SW-620)	GI50 (T47D)	GI50 (K562)	GI50 (TK-10)	GI50 (HL-60)
COc1ccc(-c2nc(O)c3ccccc3n2)c(OC)c1	> 100 µM (inactive)	> 100 µM (inactive)	> 100 µM (inactive)	> 100 µM (inactive)	> 100 µM (inactive)	> 100 µM (inactive)	> 100 µM (inactive)	> 100 µM (inactive)	> 100 µM (inactive)	> 100 µM (inactive)	> 100 µM (inactive)	> 100 µM (inactive)	> 100 µM (inactive)	> 100 µM (inactive)	> 100 µM (inactive)	> 100 µM (inactive)	> 100 µM (inactive)			
CC1(C)COCN1COC1CCCCC1	> 100 µM (inactive)	> 100 µM (inactive)	> 100 µM (inactive)	> 100 µM (inactive)	> 100 µM (inactive)	> 100 µM (inactive)	> 100 µM (inactive)	> 100 µM (inactive)	> 100 µM (inactive)	> 100 µM (inactive)	> 100 µM (inactive)	> 100 µM (inactive)	> 100 µM (inactive)	> 100 µM (inactive)	5.08 µM (inactive)	> 100 µM (inactive)	> 100 µM (inactive)	92.7 µM (inactive)	> 100 µM (inactive)	
O=C(Cc1ccccc1CCO)NCCc1ccccc1	> 100 µM (inactive)	> 100 µM (inactive)	> 100 µM (inactive)	> 100 µM (inactive)	> 100 µM (inactive)	> 100 µM (inactive)	> 100 µM (inactive)	> 100 µM (inactive)	> 100 µM (inactive)	> 100 µM (inactive)	> 100 µM (inactive)	> 100 µM (inactive)	> 100 µM (inactive)	> 100 µM (inactive)	> 100 µM (inactive)	> 100 µM (inactive)	> 100 µM (inactive)	> 100 µM (inactive)	> 100 µM (inactive)	> 100 µM (inactive)
O=C1Nc2ccc(Br)cc2/C1=N/Nc1ccccc1[N+](=O)[O-]	30.7 µM (inactive)	14.2 µM (inactive)	32.4 µM (inactive)	16.1 µM (inactive)	8.2 µM (inactive)	20.8 µM (inactive)	1.92 µM (inactive)	13.6 µM (inactive)	10.7 µM (inactive)	17.2 µM (inactive)	20.2 µM (inactive)	14 µM (inactive)	25.2 µM (inactive)	28.6 µM (inactive)	15.8 µM (inactive)	25 µM (inactive)	29.9 µM (inactive)	16.6 µM (inactive)	10.3 µM (inactive)	33.2 µM (inactive)
C[C@H]1C2Cc3cc(N)ccc3[C@@]1(C)CCN2CCc1ccccc1	> 100 µM (inactive)	64.4 µM (inactive)	41.8 µM (inactive)	96.6 µM (inactive)	37.5 µM (inactive)	25.2 µM (inactive)	> 100 µM (inactive)	58.7 µM (inactive)	15.9 µM (inactive)	62.5 µM (inactive)	76 µM (inactive)	27.4 µM (inactive)	50.7 µM (inactive)	> 100 µM (inactive)	85.1 µM (inactive)	64.7 µM (inactive)	31.6 µM (inactive)	28.8 µM (inactive)	78 µM (inactive)	28.9 µM (inactive)
CN/C(=N\N)NS(=O)(=O)c1cc(C)c(Cl)cc1S	38.5 µM (inactive)	45.8 µM (inactive)	66.5 µM (inactive)	20.6 µM (inactive)	76 µM (inactive)	62.4 µM (inactive)	> 100 µM (inactive)	> 100 µM (inactive)	57.5 µM (inactive)	96.2 µM (inactive)	> 100 µM (inactive)		69.2 µM (inactive)	> 100 µM (inactive)	> 100 µM (inactive)	48.5 µM (inactive)	24.4 µM (inactive)	49.2 µM (inactive)	77.4 µM (inactive)	41.5 µM (inactive)
CC(=O)O[C@H]1[C@H](OC(C)=O)[C@@H](CN=[N+]=[N-])OCO[C@@H]1CN=[N+]=[N-]	> 100 µM (inactive)		> 100 µM (inactive)	< 0.01 µM (active)	> 100 µM (inactive)	> 100 µM (inactive)	> 100 µM (inactive)	> 100 µM (inactive)		> 100 µM (inactive)	> 100 µM (inactive)	> 100 µM (inactive)	> 100 µM (inactive)	> 100 µM (inactive)	> 100 µM (inactive)	> 100 µM (inactive)	> 100 µM (inactive)	> 100 µM (inactive)	> 100 µM (inactive)	> 100 µM (inactive)
CCOC(=O)/C=C(/C(=O)OCC)n1cc(C)c(=O)n(/C(=C/C(=O)OCC)C(=O)OCC)c1=O	5.79 µM (inactive)	0.887 µM (active)	1.91 µM (inactive)	6.4 µM (inactive)	13.9 µM (inactive)	1.91 µM (inactive)	3.4 µM (inactive)	6.01 µM (inactive)	2.79 µM (inactive)	5.35 µM (inactive)	8.45 µM (inactive)	18.7 µM (inactive)	14.7 µM (inactive)	19.8 µM (inactive)	9.73 µM (inactive)	1.22 µM (inactive)	2.64 µM (inactive)	1.58 µM (inactive)	2.08 µM (inactive)	0.255 µM (active)
CN(C)CCNC(=O)c1cccc2nc3c(C(=O)NCCN(C)C)cccc3nc12	3.18 µM (inactive)	2.14 µM (inactive)	0.603 µM (active)	1.89 µM (inactive)	1.26 µM (inactive)	0.706 µM (active)	1.14 µM (inactive)	1.46 µM (inactive)	1.7 µM (inactive)	0.421 µM (active)	0.782 µM (active)	1.31 µM (inactive)	1.77 µM (inactive)	1.11 µM (active)	2.63 µM (inactive)	0.462 µM (active)	4.34 µM (inactive)	0.621 µM (active)	1.86 µM (inactive)	0.713 µM (active)
COc1ccc(OC)c(/C=C/[N+](=O)[O-])c1	3.67 µM (inactive)	2.85 µM (inactive) and 2.45 µM (inactive)	1.85 µM (inactive) and 3.13 µM (inactive)	4 µM (inactive)		2.32 µM (inactive)	1.87 µM (inactive)		2.14 µM (inactive) and 1.75 µM (inactive)	5.6 µM (inactive) and 4.23 µM (inactive)	3.01 µM (inactive) and 4.54 µM (inactive)	5.24 µM (inactive) and 3.46 µM (inactive)	2.41 µM (inactive) and 4.62 µM (inactive)	3.44 µM (inactive) and 4.23 µM (inactive)	6.64 µM (inactive) and 4.62 µM (inactive)	3 µM (inactive) and 2.2 µM (inactive)	3.01 µM (inactive)	2.59 µM (inactive) and 2.83 µM (inactive)		
Brc1cccc(Nc2ncnc3sc4c(c23)CCC2(C4)OCCO2)c1	27.5 µM (inactive)	10.5 µM (inactive)	27.2 µM (inactive)	28.4 µM (inactive)	24 µM (inactive)	28.3 µM (inactive)	87.1 µM (inactive)	18.6 µM (inactive)	28.4 µM (inactive)	24.5 µM (inactive)	27.6 µM (inactive)	32.5 µM (inactive)	33 µM (inactive)	34.3 µM (inactive)	23.1 µM (inactive)	0.0203 µM (active)	5.61 µM (inactive)		7.73 µM (inactive)	
Cc1cc(S(=O)(=O)NC2=Nc3cccc4cccc(c34)N2)c(S)cc1Cl	> 100 µM (inactive)	> 100 µM (inactive)	18.1 µM (inactive)	> 100 µM (inactive)	48.1 µM (inactive)	> 100 µM (inactive)	> 100 µM (inactive)	> 100 µM (inactive)	53.7 µM (inactive)	> 100 µM (inactive)	> 100 µM (inactive)	39.5 µM (inactive)	> 100 µM (inactive)	79.1 µM (inactive)	> 100 µM (inactive)	78.7 µM (inactive)	> 100 µM (inactive)	> 100 µM (inactive)		77.4 µM (inactive)
CC[C@@]1(O)C(=O)OCc2c1cc1n(c2=O)Cc2c-1nc1ccccc1c2/C=N/NC(=O)C[N+](C)(C)C	15.4 µM (inactive)	0.578 µM (active)	2.3 µM (inactive)	> 100 µM (inactive)	> 53.8 µM (inactive)	0.192 µM (active)	> 100 µM (inactive)	0.802 µM (active)	38.3 µM (inactive)	1.98 µM (inactive)	0.45 µM (active)	0.56 µM (active)	> 83.6 µM (inactive)	0.75 µM (active)	0.525 µM (active)	4.99 µM (inactive)	0.239 µM (active)	2.86 µM (inactive)	> 80.2 µM (inactive)	0.668 µM (active)
Cc1[nH]n(C2=NCCN2)c(=O)c1C	> 100 µM (inactive)	> 100 µM (inactive)	> 100 µM (inactive)	> 100 µM (inactive)	> 100 µM (inactive)	> 100 µM (inactive)	> 100 µM (inactive)	> 100 µM (inactive)	> 100 µM (inactive)	> 100 µM (inactive)	> 100 µM (inactive)	> 100 µM (inactive)	> 100 µM (inactive)	> 100 µM (inactive)	89.5 µM (inactive)	> 100 µM (inactive)	> 100 µM (inactive)	> 100 µM (inactive)	> 100 µM (inactive)	> 100 µM (inactive)
